# From patent US20260151517A1, “SOMATOSTATIN RECEPTOR-TARGETING RADIOPHARMACEUTICALS AND USES THEREOF” (Nuclidium AG, priority 2024, published 2026)
# Where two headings read alike, the source gives them in different places. *1 amine or outer side, *2 acyl side, *3 side chain or, on linkers, in order; H or OH if unused. Where a SMILES comes first, the peptide text is derived from it. Bridges are numbered along the chain shown (N, C = ends). [ ]: non-standard residue; d: D form. The star is where a group is joined. NODAGA = O=C(O)CN1CCN(CC(=O)O)CCN(C(CCC(=O)*)C(=O)O)CC1; X1 = NC(=O)Nc1ccc(CC(N[*:1])C(=O)[*:2])cc1; Phe(4-Cl) = N[CH](Cc1ccc(Cl)cc1)C(=O)O
# Tests used:
# [1] = system: well-differentiated BP and GEP neuroendocrine tumors (NET); assay: Human clinical trial, PET/CT imaging vs [^68Ga]Ga-DOTATOC PET/CT; assay type: in vivo; details: Subjects 1-4 and 6
# Procedure: The study will be a prospective, open-label, controlled, reader-blind, single center, phase I/II PET/CT study.
# The study product will be a single intravenous administration of GMP produced [^61Cu]Cu-NODAGA-LM3 followed by up to three PET/CT acquisitions. [^61Cu]Cu-NODAGA-LM3 will be administered once intravenously at an amount of 20-40 μg (or 13-26 nmol) and an activity range of 150 MBq (±25%).
# The control intervention will be [^68Ga]Ga-DOTA-TOC PET/CT (150 MBq (±25%)) (including CE-CT), is acquired as standard of care and not part of the study, but scan results will be used as comparator for the diagnostic efficacy analysis (Phase II).
# The diagnostic efficacy analysis (sensitivity, tumor uptake and image contrast (TBR), will be done in comparison with [^68Ga]Ga-DOTA-TOC PET/CT acquired as standard of care in a randomized, cross-over order. Readers of the scans will be blinded for imaging time point, tracers and clinical data and will follow a locked-read methodology. Number of Participants and Rationale: n=27 patients (including 22 patients for the sensitivity analysis powered for both superiority and non-inferiority design and 5 patients with negative [^68Ga]Ga-DOTATOC PET/CT and a positive NETest) […]
# [2] = assay type: physicochemical; details: pH 7.4
# Procedure: The mixture was vortexed for 30 min and then centrifuged at 3000 rpm to achieve phase separation. Aliquots from each phase were collected and measured in a gamma counter. The distribution coefficient was calculated as the average logarithmic values of the ratio between the radioactivity in the organic and the PBS phase.
# in vivo = details: athymic nude Foxn1^nu, mouse, total radioactivity
# Procedure: (§2) Unless otherwise specified, the in vivo studies were performed on athymic nude Foxn1^nu 4-6 weeks-old mice. Animals were injected in the shoulder with HEK-SST2 cells (10^7 cells/200 μL) suspended in PBS. The in vivo experiments were performed when tumors reached a volume between 100-500 mm. At the intervention, all mice were between 7 and 11 weeks old.
# (§3) The specificity study was performed parallel to pharmacokinetics studies. For this reason, NODAGA-LM3 was radiolabeled with ^64Cu.
# (§4) The specificity of [^64Cu]Cu-NODAGA-LM3 for SSTR2-expressing tissues was evaluated in HEK-SST2 xenograft mice through a blocking study. The mice were administered with 0.15 MBq of [^64Cu]Cu-NODAGA-LM3 co-injected with a 2000-fold excess of DOTA-LM3 as a blocking agent. The mice were sacrificed 4 hours post-injection, and the organs were collected. weighed, and counted in a gamma counter.
# Biodistribution studies = assay type: in vivo, mice; details: athymic nude Foxn1^nu, mouse, iv, 1 MBq, total radioactivity
# Procedure: (§1) The dose of the administered radiopharmaceutical was 1 MBq ([…]) diluted to 100 μL with saline solution. The mice were euthanized at 4 hours post-injection, and the organs of interest were collected, rinsed, blotted, weighed, and analyzed in a gamma counter. The results were expressed as the percentage of injected activity per gram of tissue (% IA/g) and reported as mean±standard deviation in Table 32.
# [3] = system: HEK-SST2 xenografted mice; assay: Biodistribution studies; assay type: in vivo; details: 4 hours post-injection, 1 MBq i.v.
# Procedure: as §1
# HEK-SST2 xenograft mice = details: athymic nude Foxn1^nu, mouse, in vivo, 4 h
# Procedure: as §2, §3, §4
compound,measurement,setting,value
"CC(O)C1NC(=O)C(CCCCN)NC(=O)C(Cc2ccc(NC(N)=O)cc2)NC(=O)C(Cc2ccc(O)cc2)NC(=O)C(NC(=O)C(Cc2ccc(Cl)cc2)NC(=O)CCC(C(=O)O)N2CCN(CC(=O)O)CCN(CC(=O)O)CC2)CSSCC(C(=O)NC(Cc2ccc(O)cc2)C(N)=O)NC1=O (centres unmarked) [[^61Cu]Cu-NODAGA-LM3, metal not drawn] ({NODAGA}-[Phe(4-Cl)]CY[X1]KTCY-NH2; disulfide 2-7; configuration not given here)","physiological uptake in the liver, spleen, and GI tract",[1],very low physiological uptake
same,logD,[2],-2.95 ± 0.08
same,tissue uptake at 4 h,"in vivo; 0.15 MBq, Uptake Bone",0.39 ± 0.07 %ID/g
same,tissue uptake at 4 h,"in vivo; 0.15 MBq, Uptake Pancreas",0.55 ± 0.1 %ID/g
same,tissue uptake at 4 h,"in vivo; 0.15 MBq, Uptake Stomach",1.31 ± 0.55 %ID/g
same,tissue uptake at 4 h,"in vivo; 0.15 MBq, Uptake Tumor",37.9 ± 3.43 %ID/g
same,tissue uptake at 4 h,in vivo; Uptake Blood,0.11 ± 0.05 %ID/g
same,tissue uptake at 4 h,in vivo; Uptake Bone,0.01 ± 0.01 %ID/g
same,tissue uptake at 4 h,in vivo; Uptake Heart,0.14 ± 0.07 %ID/g
same,tissue uptake at 4 h,in vivo; Uptake Intestine,0.46 ± 0.01 %ID/g
same,tissue uptake at 4 h,in vivo; Uptake Kidney,3.52 ± 0.93 %ID/g
same,tissue uptake at 4 h,in vivo; Uptake Liver,0.96 ± 0.14 %ID/g
same,tissue uptake at 4 h,in vivo; Uptake Lung,0.67 ± 0.25 %ID/g
same,tissue uptake at 4 h,in vivo; Uptake Muscle,0.03 ± 0.01 %ID/g
same,tissue uptake at 4 h,in vivo; Uptake Pancreas,0.12 ± 0.03 %ID/g
same,tissue uptake at 4 h,in vivo; Uptake Spleen,0.21 ± 0.06 %ID/g
same,tissue uptake at 4 h,in vivo; Uptake Stomach,0.43 ± 0.14 %ID/g
same,tissue uptake at 4 h,in vivo; Uptake Tumor,0.52 ± 0.18 %ID/g
same,tissue uptake at 4 h,"in vivo; female, iv, 0.15 MBq, Uptake Intestine",0.46 ± 0.04 %ID/g
same,tissue uptake at 4 h,"in vivo; female, iv, 0.15 MBq, Uptake Kidney",4.41 ± 0.74 %ID/g
same,tissue uptake at 4 h,"in vivo; female, iv, 0.15 MBq, Uptake Lung",0.6 ± 0.17 %ID/g
same,tissue uptake at 4 h,"in vivo; female, iv, 0.15 MBq, Uptake Spleen",0.21 ± 0.1 %ID/g
same,tissue to tissue ratio at 4 h,"Biodistribution studies; in vivo, Tumor-to-organ uptake ratio Tumor/Blood",181
same,tissue to tissue ratio at 4 h,"Biodistribution studies; in vivo, Tumor-to-organ uptake ratio Tumor/Liver",26
same,tissue to tissue ratio at 4 h,"Biodistribution studies; in vivo, Tumor-to-organ uptake ratio Tumor/Muscles",185
same,tissue to tissue ratio at 4 h,"Biodistribution studies; in vivo, Tumor-to-organ uptake ratio Tumor/Pituitary",5.3
same,tissue uptake at 4 h,"Biodistribution studies; in vivo, Uptake [% IA/g] Adrenal",0.61 ± 0.18 %ID/g
same,tissue uptake at 4 h,"Biodistribution studies; in vivo, Uptake [% IA/g] Blood",0.11 ± 0.01 %ID/g
same,tissue uptake at 4 h,"Biodistribution studies; in vivo, Uptake [% IA/g] Bone",0.42 ± 0.12 %ID/g
same,tissue uptake at 4 h,"Biodistribution studies; in vivo, Uptake [% IA/g] HEK-STT2-tumor",19 ± 2.1 %ID/g
same,tissue uptake at 4 h,"Biodistribution studies; in vivo, Uptake [% IA/g] Heart",0.17 ± 0.02 %ID/g
same,tissue uptake at 4 h,"Biodistribution studies; in vivo, Uptake [% IA/g] Intestine",0.58 ± 0.12 %ID/g
same,tissue uptake at 4 h,"Biodistribution studies; in vivo, Uptake [% IA/g] Liver",0.73 ± 0.06 %ID/g
same,tissue uptake at 4 h,"Biodistribution studies; in vivo, Uptake [% IA/g] Lung",0.42 ± 0.05 %ID/g
same,tissue uptake at 4 h,"Biodistribution studies; in vivo, Uptake [% IA/g] Muscle",0.1 ± 0.02 %ID/g
same,tissue uptake at 4 h,"Biodistribution studies; in vivo, Uptake [% IA/g] Pancreas",0.44 ± 0.24 %ID/g
same,tissue uptake at 4 h,"Biodistribution studies; in vivo, Uptake [% IA/g] Pituitary",3.64 ± 0.31 %ID/g
same,tissue uptake at 4 h,"Biodistribution studies; in vivo, Uptake [% IA/g] Spleen",0.18 ± 0.02 %ID/g
same,tissue uptake at 4 h,"Biodistribution studies; in vivo, Uptake [% IA/g] Stomach",0.79 ± 0.13 %ID/g
same,tissue uptake at 4 h,"Biodistribution studies; kidneys, 4 hours post-injection, 1 MBq i.v., read-out: Uptake [% IA/g] Kidneys",3.87 ± 0.51 %ID/g
same,tissue to tissue ratio at 4 h,"Biodistribution studies; tumor / all organs except kidneys, 4 hours post-injection, read-out: tumor-to-organ uptake ratio, all the organs except for kidneys",> 5
same,tissue to tissue ratio at 4 h,"Biodistribution studies; tumor/kidney, 4 hours post-injection, read-out: Tumor-to-organ uptake ratio Tumor/Kidney",4.9
same,Uptake [% IA/g] Kidneys,[3],3.87±0.51 % IA/g
same,Uptake Blood,HEK-SST2 xenograft mice,0.10 ± 0.02 % IA/g
same,Uptake Heart,HEK-SST2 xenograft mice,0.20 ± 0.01 % IA/g
same,Uptake Liver,HEK-SST2 xenograft mice,0.90 ± 0.20 % IA/g
same,Uptake Muscle,HEK-SST2 xenograft mice,0.02 ± 0.01 % IA/g
